Experimental findings from US20240254118A1, “PRMT5 INHIBITORS AND USES THEREOF” (Gilead Sciences, Inc., priority 2022, published 2024) are described below.

Experiment [1] deals with HCT116 MTAP-deleted cells. The experiment is described as follows: Cell viability assay (CellTiter-Glo, 7 days), HCT116 MTAP-deleted. The following applies: Homo sapiens, HCT-116, 168 h. Background: Cellular ATP, detected with luciferase, serves as a proxy for viable cell number.
The test system of experiment [2] is SDMA signal (PRMT5 inhibition) in HCT116 MTAP-deleted cells. The experiment in a line: Symmetric di-methyl arginine image-based high content screen assay (SDMA assay), HCT116 MTAP-deleted. Format: cell-based. Particulars: SDMA assay; for EC50: Homo sapiens, HCT-116, 72 h, 3 days of treatment, cell line not given, taken as HCT116 MTAP-deleted, read-out: EC50 (SDMA assay). The procedure, abridged:
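Read-out: per-cell mean SDMA immunofluorescence (Alexa Fluor 488 secondary), cells segmented by DAPI on a high-content imager. Compound exposure in HCT116 MTAP-deleted cells lasted until fixation on Day 3; overnight 4° C primary anti-SDMA antibody staining.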

Setting [3] is: taken as HCT116 WT versus MTAP-deleted.
Where [4] appears, read: taken as HCT116 WT vs MTAP-deleted.

A word on the CC50: it is the concentration giving 50% cytotoxicity. In general, EC50 refers to the midpoint of the concentration-response curve.

Consider `Cn1ncc2c(N)nc3ccc(C(=O)N(Cc4ccc(C(F)(F)F)cn4)N4CCCOC4=O)cc3c21` [Example 10, 4-amino-1-methyl-N-(2-oxo-1,3-oxazinan-3-yl)-N-((5-(trifluoromethyl)pyridin-2-yl)methyl)-1H-pyrazolo[4,3-c]quinoline-8-carboxamide], for which the CC50 in experiment [1] was less than 100 nM. The EC50 in experiment [2] is less than 1 nM. Also, the “EC50 selectivity (SDMA assay)” value in experiment [2] (setting [3]) came out at 180.

For `Cn1ncc2c(N)nc3ccc(C(=O)N(Cc4nc5ccc(F)cc5s4)N4CCCC4=O)cc3c21` [Example 85, 4-Amino-N-[(6-fluoro-1,3-benzothiazol-2-yl)methyl]-1-methyl-N-(2-oxopyrrolidin-1-yl)pyrazolo[4,3-c]quinoline-8-carboxamide], in experiment [1], the CC50 was less than 100 nM. The EC50 in experiment [2] is less than 1 nM. Also, in experiment [2] (setting [3]), the “EC50 selectivity (SDMA assay)” value was found to be 48.

On to `CC(=O)N(C)N(Cc1ccc(-c2ccnn2C(F)(F)F)cc1F)C(=O)c1ccc2nc(N)c3cnn(C)c3c2c1` [Example 244, N′-acetyl-4-amino-N-(2-fluoro-4-(1-(trifluoromethyl)-1H-pyrazol-5-yl)benzyl)-N′,1-dimethyl-1H-pyrazolo[4,3-c]quinoline-8-carbohydrazide], for which the CC50 in experiment [1] was less than 100 nM. The EC50 in experiment [2] was less than 1 nM. In addition, in experiment [2] (setting [3]), the “EC50 selectivity (SDMA assay)” value came to 109.

As to `Cn1ncc2c(N)nc3cc(F)c(C(=O)N(Cc4ccc(OC(F)F)cc4F)N4CCCC4=O)cc3c21` [Example 78, 4-amino-N-(4-(difluoromethoxy)-2-fluorobenzyl)-7-fluoro-1-methyl-N-(2-oxopyrrolidin-1-yl)-1H-pyrazolo[4,3-c]quinoline-8-carboxamide], the CC50 in experiment [1] was less than 100 nM. Further, the EC50 in experiment [2] is less than 1 nM. Besides, the “EC50 selectivity (SDMA assay)” value in experiment [2] (setting [3]) is 19.

`CC(=O)N(CC(F)F)N(Cc1ccc(C(F)(F)F)cn1)C(=O)c1ccc2nc(N)c3cnn(C)c3c2c1` [Example 115, N′-acetyl-4-amino-N′-(2,2-difluoroethyl)-1-methyl-N-[[5-(trifluoromethyl)-2-pyridyl]methyl]pyrazolo[4,3-c]quinoline-8-carbohydrazide]: in experiment [1], the CC50 fell in the range of 100 to 1000 nM. For the same molecule, in experiment [2], the EC50 lay in the range of 1 to 5 nM. In addition, in experiment [2] (setting [3]), the “EC50 selectivity (SDMA assay)” value came to 382.

Regarding `Cn1ncc2c(N)nc3ccc(C(=O)N(Cc4ccc(C(F)(F)F)cn4)N4C(=O)O[C@H]5CC[C@H]54)cc3c21` [Example 362, 4-amino-1-methyl-N-((1S,5R)-3-oxo-2-oxa-4-azabicyclo[3.2.0]heptan-4-yl)-N-((5-(trifluoromethyl)pyridin-2-yl)methyl)-1H-pyrazolo[4,3-c]quinoline-8-carboxamide], the CC50 in experiment [1] was less than 100 nM. In addition, the EC50 in experiment [2] was 1 to 5 nM. For the same molecule, the “EC50 selectivity (SDMA assay)” value in experiment [2] (setting [3]) is listed as 468.

The molecule `CN(C(=O)C12CC(F)(C1)C2)N(Cc1ccc(C(F)(F)F)cn1)C(=O)c1ccc2nc(N)c3cnn(C)c3c2c1` [Example 102, 4-amino-N′-(3-fluorobicyclo[1.1.1]pentane-1-carbonyl)-N′,1-dimethyl-N-[[5-(trifluoromethyl)-2-pyridyl]methyl]pyrazolo[4,3-c]quinoline-8-carbohydrazide] displayed a CC50 in experiment [1] of less than 100 nM. Moreover, the EC50 in experiment [2] fell in the range of 1 to 5 nM. Further, in experiment [2] (setting [3]), the “EC50 selectivity (SDMA assay)” value was 252.

The molecule `COC(=O)N(C)N(Cc1ccc(C(F)(F)F)cn1)C(=O)c1ccc2nc(N)c3cnn(C)c3c2c1` [Example 253, methyl 2-(4-amino-1-methyl-1H-pyrazolo[4,3-c]quinoline-8-carbonyl)-1-methyl-2-((5-(trifluoromethyl)pyridin-2-yl)methyl)hydrazine-1-carboxylate] returned a CC50 in experiment [1] of less than 100 nM. In addition, the EC50 in experiment [2] was less than 1 nM. The “EC50 selectivity (SDMA assay)” value in experiment [2] (setting [3]) stood at 28.

`CN(C(=O)c1ccccc1)N(Cc1ccc(C(F)(F)F)cn1)C(=O)c1ccc2nc(N)c3cnn(C)c3c2c1` [Example 37, 4-amino-N′-benzoyl-N′, 1-dimethyl-N-[[5-(trifluoromethyl)-2-pyridyl]methyl]pyrazolo[4,3-c]quinoline-8-carbohydrazide] gave a CC50 in experiment [1] of 100 to 1000 nM. Also, the EC50 in experiment [2] is 1 to 5 nM. Moreover, in experiment [2] (setting [3]), the “EC50 selectivity (SDMA assay)” value is 141.

With `CC(=O)N([C@H]1CCOC1)N(Cc1ccc(C(F)(F)F)cn1)C(=O)c1ccc2nc(N)c3cnn(C)c3c2c1` [Example 207, N′-acetyl-4-amino-1-methyl-N′-[(3S)-tetrahydrofuran-3-yl]-N-[[5-(trifluoromethyl)-2-pyridyl]methyl]pyrazolo[4,3-c]quinoline-8-carbohydrazide], the CC50 in experiment [1] was in the range of 100 to 1000 nM. For the same molecule, in experiment [2], the EC50 was 1 to 5 nM. Further, in experiment [2] (setting [3]), the “EC50 selectivity (SDMA assay)” value worked out at 364.

Consider `CCOC(=O)NN(Cc1ccc(C(F)(F)F)cn1)C(=O)c1cc2c(cc1F)nc(N)c1cnn(C)c12` [Example 46, ethyl N-[(4-amino-7-fluoro-1-methyl-pyrazolo[4,3-c]quinoline-8-carbonyl)-[[5-(trifluoromethyl)-2-pyridyl]methyl]amino]carbamate], for which, in experiment [1], the CC50 is less than 100 nM. The concentration giving a half-maximal response (EC50) in experiment [2] was less than 1 nM. Moreover, the “EC50 selectivity (SDMA assay)” value in experiment [2] (setting [3]) was found to be 6.

As for `CN(C(=O)C1CC1)N(Cc1ccc(-c2cnn(C(F)(F)F)c2)cc1F)C(=O)c1ccc2nc(N)c3cnn(C)c3c2c1` [Example 230, 4-amino-N′-(cyclopropanecarbonyl)-N-(2-fluoro-4-(1-(trifluoromethyl)-1H-pyrazol-4-yl)benzyl)-N′,1-dimethyl-1H-pyrazolo[4,3-c]quinoline-8-carbohydrazide], in experiment [1], the half-maximal cytotoxic concentration (CC50) is less than 100 nM. Moreover, the EC50 in experiment [2] is less than 1 nM. Also, the “EC50 selectivity (SDMA assay)” value in experiment [2] (setting [3]) was determined as 228.

The molecule `CC(=O)N(C)N(Cc1ccc(-c2ccc(C(F)(F)F)nc2)cc1F)C(=O)c1ccc2nc(N)c3cnn(C)c3c2c1` [Example 229, N′-acetyl-4-amino-N-(2-fluoro-4-(6-(trifluoromethyl)pyridin-3-yl)benzyl)-N′,1-dimethyl-1H-pyrazolo[4,3-c]quinoline-8-carbohydrazide] showed a CC50 in experiment [1] of less than 100 nM. In experiment [2], the EC50 lay in the range of 1 to 5 nM. Moreover, the “EC50 selectivity (SDMA assay)” value in experiment [2] (setting [3]) was 43.

For `CC(=O)N(C)N(Cc1ccc(C(F)(F)F)cn1)C(=O)c1cc2c(cc1F)nc(N)c1cnn(C)c12` [Example 34, N′-acetyl-4-amino-7-fluoro-N′, 1-dimethyl-N-[[5-(trifluoromethyl)-2-pyridyl]methyl]pyrazolo[4,3-c]quinoline-8-carbohydrazide], the CC50 in experiment [1] is less than 100 nM. Further, in experiment [2], the EC50 lay in the range of 1 to 5 nM. In addition, the “EC50 selectivity (SDMA assay)” value in experiment [2] (setting [3]) was determined as 8.

In experiment [1], `[2H]C([2H])(c1ccc(C(F)(F)F)cc1F)N(C(=O)c1ccc2nc(N)c3cnn(C)c3c2c1)N(C)C(C)=O` [Example 264, N′-acetyl-4-amino-N-((2-fluoro-4-(trifluoromethyl)phenyl)methyl-d2)-N′,1-dimethyl-1H-pyrazolo[4,3-c]quinoline-8-carbohydrazide] yielded a CC50 of less than 100 nM. Also, in experiment [2], the EC50 was less than 1 nM. The “EC50 selectivity (SDMA assay)” value in experiment [2] (setting [3]) amounted to 281.

`CC(=O)N(C)N(Cc1ccc(C(F)(F)F)cn1)C(=O)c1ccc2nc(N)c3c(c2c1)CO[C@@H]3C` [Example 71, (3R)—N′-acetyl-4-amino-N′,3-dimethyl-N-[[5-(trifluoromethyl)-2-pyridyl]methyl]-1,3-dihydrofuro[3,4-c]quinoline-8-carbohydrazide]: the CC50 in experiment [1] is less than 100 nM. The EC50 in experiment [2] was 1 to 5 nM. The “EC50 selectivity (SDMA assay)” value in experiment [2] (setting [3]) was 59.

In experiment [1], `CC(=O)N(C)N(Cc1ccc(F)cc1C#N)C(=O)c1ccc2nc(N)c3cnn(C)c3c2c1` [Example 452, N′-acetyl-4-amino-N-(2-cyano-4-fluorobenzyl)-N′,1-dimethyl-1H-pyrazolo[4,3-c]quinoline-8-carbohydrazide] came in with a CC50 of less than 100 nM. The EC50 in experiment [2] is less than 1 nM. The “EC50 selectivity (SDMA assay)” value in experiment [2] (setting [4]) is on record as 213.

In experiment [1], `Cc1cc(CN(C(=O)c2ccc3nc(N)c4cnn(C)c4c3c2)N(C)C(=O)C2CC2)c(F)cc1-c1cnn(C(F)(F)F)c1` [Example 315, 4-amino-N′-(cyclopropanecarbonyl)-N-(2-fluoro-5-methyl-4-(1-(trifluoromethyl)-1H-pyrazol-4-yl)benzyl)-N′,1-dimethyl-1H-pyrazolo[4,3-c]quinoline-8-carbohydrazide] returned a CC50 of less than 100 nM. For the same molecule, the concentration for a half-maximal effect (EC50) in experiment [2] is less than 1 nM. In experiment [2] (setting [3]), the “EC50 selectivity (SDMA assay)” value is given as 160.

`CN(C(=O)CC1CC1)N(Cc1ccc(C(F)(F)F)cn1)C(=O)c1ccc2nc(N)c3cnn(C)c3c2c1` [Example 399, 4-amino-N′-(2-cyclopropylacetyl)-N′,1-dimethyl-N-[[5-(trifluoromethyl)-2-pyridyl]methyl]pyrazolo[4,3-c]quinoline-8-carbohydrazide] gave a CC50 in experiment [1] of less than 100 nM. The EC50 in experiment [2] lay in the range of 1 to 5 nM. In addition, the “EC50 selectivity (SDMA assay)” value in experiment [2] (setting [4]) came to 358.

As to `CN(C(=O)c1ncco1)N(Cc1ccc(C(F)(F)F)cc1F)C(=O)c1ccc2nc(N)c3cnn(C)c3c2c1` [Example 165, N′-(4-amino-1-methyl-1H-pyrazolo[4,3-c]quinoline-8-carbonyl)-N′-(2-fluoro-4-(trifluoromethyl)benzyl)-N-methyloxazole-2-carbohydrazide], the CC50 in experiment [1] was less than 100 nM. Further, the EC50 in experiment [2] was less than 1 nM. For the same molecule, the “EC50 selectivity (SDMA assay)” value in experiment [2] (setting [3]) was 11.

As to `Cn1ncc2c(N)nc3ccc(C(=O)N(Cc4ccc(C(F)(F)F)cn4)N4CCOC4=O)cc3c21` [Example 133, 4-amino-1-methyl-N-(2-oxooxazolidin-3-yl)-N-((5-(trifluoromethyl)pyridin-2-yl)methyl)-1H-pyrazolo[4,3-c]quinoline-8-carboxamide], the CC50 in experiment [1] is less than 100 nM. In experiment [2], the EC50 is less than 1 nM. Besides, the “EC50 selectivity (SDMA assay)” value in experiment [2] (setting [3]) came out at 92.
